Laboratory results reported in patent US10670605B2, “Cysteine reactive probes and uses thereof” (The Scripps Research Institute, priority 2015, dated 2020).
Values belong to the compound of their own block, whether it stands above or below them.

Target: T1, NR3C1 C622 (P04150) (Homo sapiens, UniProt P04150)
T1 sequence (P04150 1-777): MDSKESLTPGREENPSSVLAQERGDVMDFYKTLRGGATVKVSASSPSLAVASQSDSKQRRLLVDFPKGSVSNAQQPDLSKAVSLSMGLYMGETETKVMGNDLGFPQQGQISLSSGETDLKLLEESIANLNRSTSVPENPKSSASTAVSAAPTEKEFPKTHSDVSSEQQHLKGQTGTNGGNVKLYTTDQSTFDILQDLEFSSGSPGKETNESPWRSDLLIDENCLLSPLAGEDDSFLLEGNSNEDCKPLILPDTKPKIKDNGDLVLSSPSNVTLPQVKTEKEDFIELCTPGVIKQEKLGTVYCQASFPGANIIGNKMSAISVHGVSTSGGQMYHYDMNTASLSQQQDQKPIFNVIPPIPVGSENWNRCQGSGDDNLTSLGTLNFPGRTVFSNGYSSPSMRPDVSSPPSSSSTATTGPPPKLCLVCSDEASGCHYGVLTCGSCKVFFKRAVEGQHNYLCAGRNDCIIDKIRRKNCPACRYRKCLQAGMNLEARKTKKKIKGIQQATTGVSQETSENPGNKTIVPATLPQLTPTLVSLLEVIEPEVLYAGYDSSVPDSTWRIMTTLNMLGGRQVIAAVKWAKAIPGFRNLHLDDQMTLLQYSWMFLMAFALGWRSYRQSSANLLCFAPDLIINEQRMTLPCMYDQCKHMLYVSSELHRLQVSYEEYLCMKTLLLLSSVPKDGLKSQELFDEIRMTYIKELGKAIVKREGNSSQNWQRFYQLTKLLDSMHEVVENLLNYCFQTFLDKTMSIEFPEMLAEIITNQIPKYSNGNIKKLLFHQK
Test: Competitive isoTOP-ABPP, cell lysates
Assay type: binding

R value (DMSO/fragment) (500 μM, in vitro, MDA-MB-231): 20.0
Compound: O=C(CCl)Nc1cc(C(F)(F)F)cc(C(F)(F)F)c1 [compound 3]

isoTOP-ABPP ratio, P04150_C622 (500 μM, invitro, 231): 1.7
Compound: Cn1cc(S(=O)(=O)N2CCOCC2)cc1C(=O)NC(=O)CCl [compound 11]

isoTOP-ABPP reactivity ratio, P04150_C622 (500 μm, in-vitro_ramos_231): 4.8
Compound: C=CC(=O)N(Cc1cccnc1)c1cc(C(F)(F)F)cc(C(F)(F)F)c1 [compound 31]
